{"source": "patent US20150104392A1", "about": "“COMPOSITIONS, BIOMARKERS AND THEIR USE IN THE TREATMENT OF CANCER” (Aptose Biosciences Inc., priority 2013, published 2015)", "key": {"cancer cell lines": {"tested_on": "cancer cell lines", "experiment": "XTT antiproliferative assay, panel of cancer cell lines (FIG. 3)", "type": "cell-based", "description": "FIG. 3 is a graphical representation of the effect of LOR-253 on proliferation of a number of cancer cell lines in vitro. Cells of various cancer cell lines were incubated with LOR-253 as described in the Examples, and the […] concentrations of various cell lines for 50% of maximal inhibition of cell proliferation (GI50) by LOR-253 were determined and shown in the figure.\nAntiproliferative activity of LOR-253 was determined by XTT assay as follows. Adherent cells (2×10^3/well) in 100 μL of growth medium were seeded in 96-well cell culture plates and incubated overnight at 37° C. The medium was removed and replaced with a total volume of 100 μL growth medium containing LOR-253 (or 0.1% DMSO vehicle control), as described in the respective experiments. […] After incubation of the cells at 37° C. for 5 days, cell viability was quantitated with the use of sodium 3′-[1-(phenylamino-carbonyl)-3,4-tetrazolium}-bis(4-methoxy-6-nitro)benzene sulfonic acid hydrate (XTT) colorimetric assay (Roche). […] The plates were further incubated at 37° C. for 4 h, and the absorbance of each well was measured at 490 nm with a multiwell spectrophotometer (Bio-Tek Instruments Inc.). The data were adjusted relative to the blank and expressed as a percentage of cell growth compared with the vehicle control. […]"}, "HL-60 [1]": {"tested_on": "HL-60", "experiment": "KLF4/p21 induction, quantitative RT-PCR", "type": "cell-based, human", "conditions": "0.5 μM, 16 hours", "description": "(§1) To determine if KLF4 and/or p21 expressions are induced by LOR-253, AML cells (THP1, HL-60) were treated with DMSO (vehicle control) or 0.5 μM LOR-253 for 16 hours. Total RNA was extracted using the TRIzol Plus RNA Purification kit (Ambion, Life Technologies), according to the manufacturer's instructions. First strand cDNA was synthesized from 1-2 ug total RNA using random hexamer primers (Invitrogen) and the SuperScript II Reverse Transcriptase kit (Invitrogen). Quantitative RT-PCR was performed in the ABI Prism 7000 Sequence Detection System using cDNAs and human TaqMan Gene Expression Assay primer/probe sets for Krüppel-like factor 4 (KLF4), cyclin-dependent kinase inhibitor 1A (p21) and the ABI TaqMan Universal PCR master mix protocol. Gene expression was normalized with β-actin gene expression in the same sample, and fold changes in KLF4 or p21 were expressed relative to the corresponding expression level in the DMSO treated samples using the comparative CT method."}, "THP1 [2]": {"tested_on": "THP1", "experiment": "KLF4/p21 induction, quantitative RT-PCR", "type": "cell-based, human", "conditions": "0.5 μM, 16 hours", "description": "as §1"}, "THP-1 cells": {"tested_on": "THP-1 cells", "experiment": "FITC-Annexin V / propidium iodide flow cytometry (apoptosis)", "type": "cell-based", "conditions": "16 hours", "description": "THP-1 cells were treated with DMSO, 0.5 or 1 uM of LOR-253 for 16 hours. Cells were washed twice with cold PBS and resuspended Annexin V binding buffer. 1×10^5 cells in 100 μL were stained with FITC-Annexin V and propidium iodide, and incubated for 15 minutes at room temperature. After staining, 400 ul of binding buffer was added and the cells were kept on ice until analyzed on a BD FACSCanto flow cytometer."}, "HL-60 [3]": {"tested_on": "HL-60", "experiment": "Caspase 3 activity, EnzChek Caspase-3 Assay Kit", "type": "cell-based", "conditions": "0.5 μM, 48 hours", "description": "(§2) THP1 and HL-60 cells were treated with DMSO (vehicle control) or 0.5 μM LOR-253 for 48 hours. Cell lysates were collected using a 1% Triton-X100 lysis. Caspase 3 activity was measured using EnzChek Caspase-3 Assay Kit #1 (Life Technologies) with 5 μg of cell lysastes according to manufacturer's protocol."}, "THP1 [4]": {"tested_on": "THP1", "experiment": "Caspase 3 activity, EnzChek Caspase-3 Assay Kit", "type": "cell-based", "conditions": "0.5 μM, 48 hours", "description": "as §2"}, "THP1 cells": {"tested_on": "THP1 cells", "experiment": "BAX/BCL2 expression, quantitative RT-PCR", "type": "cell-based, human", "conditions": "0.5 μM, 48 hours", "description": "as §1, with “THP1” for “To determine if KLF4 and/or p21 expressions are induced by LOR-253, AML”, “cells” for “cells (THP1, HL-60)”, “48” for “16”, “BCL2-associated X protein (BAX), B-cell CLL/Lymphoma 2 (BCL2)” for “Krüppel-like factor 4 (KLF4), cyclin-dependent kinase inhibitor 1A (p21)”, “BAX” for “KLF4”, “BCL2” for “p21”"}, "KLF4 protein": {"tested_on": "KLF4 protein", "experiment": "Pharmacodynamic response, KLF4 protein level in tumors", "type": "in vivo", "conditions": "mice; 1, 5 and 15 mg/kg for 5 consecutive days; 16 hours after last dose", "description": "To study the pharmacodynamic (PD) responses, mice were treated for 5 consecutive days with 1, 5, and 15 mg/kg LOR-253. Tumors were measured 16 hours after the last dose, and the KLF-4 protein level was measured."}, "[5]": {"experiment": "Repeat-dose toxicity study", "type": "in vivo", "conditions": "dogs, highest dose tested"}, "hERG": {"biological_target": "hERG (Homo sapiens, UniProt Q12809)", "sequence (Q12809 whole entry)": "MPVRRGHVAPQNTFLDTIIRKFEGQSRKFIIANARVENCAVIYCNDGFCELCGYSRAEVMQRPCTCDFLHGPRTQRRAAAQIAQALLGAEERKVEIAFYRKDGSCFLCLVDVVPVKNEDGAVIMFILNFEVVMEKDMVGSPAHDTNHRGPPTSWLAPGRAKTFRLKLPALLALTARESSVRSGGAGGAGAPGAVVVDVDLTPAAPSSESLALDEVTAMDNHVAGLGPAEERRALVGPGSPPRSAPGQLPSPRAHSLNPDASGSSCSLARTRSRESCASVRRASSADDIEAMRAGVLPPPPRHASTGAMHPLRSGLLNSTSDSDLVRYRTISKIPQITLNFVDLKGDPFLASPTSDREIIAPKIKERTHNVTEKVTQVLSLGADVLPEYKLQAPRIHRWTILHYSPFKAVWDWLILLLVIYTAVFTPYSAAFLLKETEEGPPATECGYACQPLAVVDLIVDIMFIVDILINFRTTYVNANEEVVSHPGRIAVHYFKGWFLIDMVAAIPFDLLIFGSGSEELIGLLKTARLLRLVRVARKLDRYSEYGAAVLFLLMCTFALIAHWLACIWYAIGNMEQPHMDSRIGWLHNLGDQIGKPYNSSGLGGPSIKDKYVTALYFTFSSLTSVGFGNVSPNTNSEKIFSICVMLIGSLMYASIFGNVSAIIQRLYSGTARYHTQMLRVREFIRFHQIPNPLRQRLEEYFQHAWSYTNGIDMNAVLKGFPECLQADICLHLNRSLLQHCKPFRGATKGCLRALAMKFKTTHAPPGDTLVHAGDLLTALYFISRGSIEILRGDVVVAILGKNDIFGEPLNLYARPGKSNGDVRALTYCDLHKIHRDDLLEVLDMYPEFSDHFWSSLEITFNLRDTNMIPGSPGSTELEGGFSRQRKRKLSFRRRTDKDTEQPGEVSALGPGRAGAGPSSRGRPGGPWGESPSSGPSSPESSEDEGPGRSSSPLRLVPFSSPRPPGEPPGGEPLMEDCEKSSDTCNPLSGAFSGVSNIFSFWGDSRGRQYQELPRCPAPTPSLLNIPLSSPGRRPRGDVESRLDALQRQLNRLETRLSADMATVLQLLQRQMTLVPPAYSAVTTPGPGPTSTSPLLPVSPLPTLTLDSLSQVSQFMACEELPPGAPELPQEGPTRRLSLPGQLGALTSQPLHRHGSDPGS", "experiment": "hERG tail current density"}, "CYP450 enzymes": {"tested_on": "CYP450 enzymes", "experiment": "CYP450 enzyme inhibition", "type": "in vitro ADME"}, "[6]": {"experiment": "GLP blood compatibility studies"}}}
{"smiles": "Cc1[nH]c2ccc(F)cc2c1-c1nc2c3cccnc3c3ncccc3c2[nH]1", "note": "[LOR-253]", "values": [{"measurement": "sensitivity of cell lines to LOR-253", "setting": "cancer cell lines; cell lines of lung, bladder, colon, prostate cancer, melanoma and breast cancer", "result": "less sensitive"}, {"measurement": "sensitivity of cell lines to LOR-253", "setting": "cancer cell lines; leukemia/lymphoma incl. AML cell lines (HL-60, MV 411, THP-1, HEL92.1.7, CCRF-CEM, MOLT-4, Jurkat, K-562, Ramos, Raji)", "result": "most sensitive"}, {"measurement": "KLF4 expression (fold change vs DMSO)", "setting": "HL-60 [1]", "result": "increased expression"}, {"measurement": "p21 expression (fold change vs DMSO)", "setting": "HL-60 [1]", "result": "increased expression"}, {"measurement": "KLF4 expression (fold change vs DMSO)", "setting": "THP1 [2]", "result": "increased expression"}, {"measurement": "p21 expression (fold change vs DMSO)", "setting": "THP1 [2]", "result": "increased expression"}, {"measurement": "Annexin V staining", "setting": "THP-1 cells; 0.5 or 1 uM", "result": "elevated Annexin V staining"}, {"measurement": "early apoptotic population (Q3: Annexin V+/PI−)", "setting": "THP-1 cells; increasing concentration (0.5 to 1 uM)", "result": "increase in the early apoptotic population"}, {"measurement": "Caspase 3 activity", "setting": "HL-60 [3]", "result": "elevated Caspase 3 activity"}, {"measurement": "Caspase 3 activity", "setting": "THP1 [4]", "result": "elevated Caspase 3 activity"}, {"measurement": "BAX expression (fold change vs DMSO)", "setting": "THP1 cells", "result": "Elevation of BAX"}, {"measurement": "BCL2 expression (fold change vs DMSO)", "setting": "THP1 cells", "result": "repression of BCL2"}, {"measurement": "average KLF4 protein levels in tumors", "setting": "KLF4 protein", "result": "increased in a dose-dependent manner"}, {"measurement": "cardiovascular effects", "setting": "[5]", "result": "no treatment-related cardiovascular effects"}, {"measurement": "inhibition of hERG tail current density", "setting": "hERG", "result": "no significant inhibition"}, {"measurement": "inhibition of CYP450 enzymes", "setting": "CYP450 enzymes", "result": "no significant inhibition"}, {"measurement": "blood compatibility of IV formulation", "setting": "[6]", "result": "confirmed the suitability of IV formulation"}]}
